# Measurements from PubChem BioAssay (NCI).
# Several values for one entry are separate records, joined by “and”; a condition that tells them apart may be missing. Equal entries are not always repeated.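 Interpolation was linear, between the two tested concentrations surrounding the appropriate level; five concentrations were tested over 48 hours in 96-well plates. GI50: concentration for 50% inhibition of growth. TGI marks complete inhibition of growth.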
# Assays:
# Assay in all cases: DTP human tumour cell line panel, 48 h
# ACHN renal = system: ACHN renal
# CAKI-1 renal = system: CAKI-1 renal
# HOP-92 NSCLC = system: HOP-92 NSCLC
# IGROV1 ovarian = system: IGROV1 ovarian
# OVCAR-3 ovarian = system: OVCAR-3 ovarian
# RPMI-8226 leukemia = system: RPMI-8226 leukemia
# SK-MEL-5 melanoma = system: SK-MEL-5 melanoma
# SN12C renal = system: SN12C renal
# SNB-19 CNS = system: SNB-19 CNS
# SR leukemia = system: SR leukemia
Structure (SMILES),GI50 (ACHN renal),TGI (ACHN renal),GI50 (CAKI-1 renal),TGI (CAKI-1 renal),GI50 (HOP-92 NSCLC),TGI (HOP-92 NSCLC),GI50 (IGROV1 ovarian),TGI (IGROV1 ovarian),GI50 (OVCAR-3 ovarian),TGI (OVCAR-3 ovarian),GI50 (RPMI-8226 leukemia),TGI (RPMI-8226 leukemia),GI50 (SK-MEL-5 melanoma),TGI (SK-MEL-5 melanoma),GI50 (SN12C renal),TGI (SN12C renal),GI50 (SNB-19 CNS),TGI (SNB-19 CNS),GI50 (SR leukemia),TGI (SR leukemia) [µM]
C[C@@H](N)C1CCC(C(=O)Nc2ccncc2)CC1 (some centres undefined),> 100 µM,> 100 µM,> 40400 nM,> 100 µM,855 nM,> 100 µM,81600 nM,> 100 µM,> 100 µM,> 100 µM,> 100000 nM,> 100 µM,> 100 µM,> 100 µM,> 100 µM,> 100 µM,> 100 µM,> 100 µM,36.4 µM,> 100
Cc1nnc(N=Nc2c(O)[nH]c3c(Cl)cc(Cl)cc23)n1N,,> 100 µM,,> 100 µM,,> 100 µM,,> 100 µM,,> 100 µM,,> 100 µM,,,,> 100 µM,,> 100 µM,,> 100
COc1c(C)c2c(c3c1c(=O)c1ccccc1n3C)C=CC(C)(C)O2,,56.3 µM,,82.9 µM,,88.8 µM,,> 100 µM,,41 µM,,76.8 µM,,31.1 µM,,> 100 µM,,> 100 µM,,58.6
O=C(CCCCCCCn1cc(-c2cccnc2)nn1)Nc1ccccc1-c1ccccc1,9.39 µM,> 100 µM,1290 nM,> 58.4 µM,31800 nM,> 100 µM,272 nM,> 100 µM,5.72 µM,> 100 µM,401 nM,> 77.9 µM,2.25 µM,15.1 µM,0.0475 µM,> 100 µM,1.74 µM,> 100 µM,3.65 µM,64.8
O=C(N/N=C/c1ccccc1O)C(O)(c1ccccc1)c1ccccc1,8.43 µM,> 100 µM,2360 nM,> 100 µM,> 100000 nM,> 100 µM,3830 nM,> 100 µM,2.66 µM,> 100 µM,> 100000 nM,> 100 µM,> 100 µM,> 100 µM,> 100 µM,> 100 µM,> 100 µM,> 100 µM,4.29 µM,> 100
Cc1nc2ccccn2c1NC(=O)NNC(=S)Nc1ccc(Br)cc1,37.9 µM,> 100 µM,29600 nM,> 100 µM,49400 nM,> 100 µM,48900 nM,> 100 µM,38.6 µM,94.8 µM,41600 nM,> 100 µM,47.7 µM,> 100 µM,35.9 µM,> 100 µM,39.1 µM,> 100 µM,18.9 µM,55.6
Cc1cc(C(=O)Nc2nc3cccc(Cl)c3n2[C@@H]2CCCCN(C(=O)/C=C/CN(C)C)C2)ccn1,0.406 µM,16.3 µM,580 nM,17.2 µM,6940 nM,32.2 µM,634 nM,15.1 µM,4.08 µM,18.4 µM,9250 nM,32 µM,8.97 µM,22.8 µM,3.51 µM,22.2 µM,12.9 µM,31.2 µM,11.3 µM,35.5
C[C@H](N)C(=O)N[C@@H]1[C@H]2C(=C(O)C[C@@H](O)[C@@H]2O)C(=O)O[C@]1(C)C(Cl)Cl,0.309 µM,5.21 µM and 1.58 µM,430 nM,,223 nM,1.19 µM and 0.736 µM,441 nM,7.79 µM and 2.43 µM,0.454 µM,9.36 µM and 1.94 µM,261 nM and 161 nM,2.57 µM and 2.35 µM,0.228 µM,0.994 µM and 0.471 µM,0.212 µM,1.23 µM and 1.67 µM,0.242 µM,6.02 µM and 1.72 µM,0.255 µM,7.55
O=C(c1ccc(OCCN2CCCCC2)cc1)c1c(-c2ccc(O)cc2)sc2cc(O)ccc12,13.5 µM and 14.7 µM,27.2 µM and 28.2 µM,4650 nM and 14400 nM,20.6 µM and 34.1 µM,1430 nM and 5510 nM,6.72 µM and 29 µM,12300 nM and 16500 nM,28.9 µM and 38.5 µM,10 µM and 14 µM,21.7 µM and 31.5 µM,5540 nM and 2410 nM,77 µM and > 23.1 µM,9.51 µM and 5.32 µM,21.4 µM and 16.9 µM,13.5 µM and 14.5 µM,29.7 µM and 29.8 µM,13.7 µM and 15 µM,30.5 µM and 34.2 µM,3.16 µM and 1.88 µM,
CCc1c2c(nc3cc4c(c(N)c13)OCO4)-c1cc3c(c(=O)n1C2)COC(=O)[C@]3(O)CC,< 0.001 µM,0.412 µM,< 1 nM,0.00741 µM,6.02 nM,0.562 µM and 0.992 µM,161 nM and 128 nM,,0.278 µM and 0.264 µM,> 100 µM,,0.317 µM and 2.77 µM,< 0.001 µM,0.0222 µM and 0.101 µM,< 0.001 µM,> 100 µM,< 0.001 µM,0.183 µM,,> 100
CC1=C(C(=O)Nc2ccccc2C)C(c2ccc(C3C(C(=O)Nc4ccccc4C)=C(C)NC(C)=C3C(=O)Nc3ccccc3C)cc2)C(C(=O)Nc2ccccc2C)=C(C)N1,,16 µM,,22.7 µM,,20.6 µM,,9.5 µM,,18.5 µM,,7.85 µM,,24.6 µM,,2.85 µM,,29.4 µM,,8.56
Cc1ncc(C(=O)Nc2ccc(CN3CCN(C)CC3)c(C(F)(F)F)c2)cc1C#Cc1cnc(N)c2cnccc12,0.133 µM,1.03 µM,167 nM,1.64 µM,29.9 nM,0.258 µM,29.4 nM,0.282 µM,0.181 µM,5.98 µM,249 nM,2.13 µM,0.0805 µM,0.604 µM,0.037 µM,11.5 µM,0.684 µM,17.6 µM,0.0456 µM,1.92
CNC1C(O)C(OC2C(N)CC(N)C(OC3OC(CN)=CCC3N)C2O)OCC1(C)O (centres undefined),,> 100 µM,,> 100 µM,,> 100 µM,,> 100 µM,,> 100 µM,,> 100 µM,,> 100 µM,,> 100 µM,,> 100 µM,,> 100
